Experimental findings from PubChem BioAssay AID1745844 (Carcinogenic Potency Database (CPDB), 2022) are described below.

The data set concerns rodent lifetime carcinogenesis bioassay, tumor incidence TD50. Nature of the data set: carcinogenic potency in animals, long-term in vivo studies, CPDB compilation (AID 1745844).

Active and inactive are the calls of the source. No rule for the calls is given here.

Broadly, the TD50 is the dose at which the toxic effect under study appears in half of the subjects. Consider `O=C1NC(c2ccc([N+](=O)[O-])s2)Nc2ccccc21` (configuration not stated), for which the TD50 was 1.53 mg/kg/day (rat, strain Sprague-Dawley, females, in feed, site: any site (literature study), lesion: several types, types named in the paper, dosed 46 weeks, study length 66 weeks) and 13.3 mg/kg/day (rat, strain Sprague-Dawley, females, in feed, site: mammary gland, lesion: adenocarcinoma, dosed 46 weeks, study length 66 weeks).
Regarding `CCOC(=O)C1OC1(C)c1ccccc1` (configuration not stated), the TD50 (rat, strain Wistar, females, in feed, site: any site (literature study), lesion: benign tumor, dosed 104 weeks, study length 104 weeks) was 253 mg/kg/day (inactive); the TD50 (rat, strain Wistar, females, in feed, site: any site (literature study), lesion: malignant tumor, dosed 104 weeks, study length 104 weeks) was 2230 mg/kg/day (inactive); the TD50 (rat, strain Wistar, females, in feed, site: liver, lesion: hemangioendothelioma, dosed 104 weeks, study length 104 weeks) was 9360 mg/kg/day (inactive); the TD50 (rat, strain Wistar, females, in feed, site: pituitary gland, lesion: adenoma, dosed 104 weeks, study length 104 weeks) was 331 mg/kg/day (inactive); the TD50 (rat, strain Wistar, males, in feed, site: any site (literature study), lesion: benign tumor, dosed 104 weeks, study length 104 weeks) is 1150 mg/kg/day (inactive); the TD50 (rat, strain Wistar, males, in feed, site: any site (literature study), lesion: malignant tumor, dosed 104 weeks, study length 104 weeks) was 4110 mg/kg/day (inactive). The TD50 (rat, strain Wistar, males, in feed, site: testis, lesion: interstitial-cell tumor, dosed 104 weeks, study length 104 weeks) is 1150 mg/kg/day (inactive). Further, the carcinogen call (rat, strain Wistar, males, in feed, site: liver, lesion: one or several types, types not named, dosed 104 weeks, study length 104 weeks) was “negative (inactive)”.
For `O=C1c2ccccc2-c2ccc3c4c(ccc1c24)-c1ccccc1C3=O`, the carcinogen call (mouse, strain B6C3F1, females, in feed, site: any site (literature study), lesion: several types, types named in the paper, dosed 106 weeks, study length 106 weeks) was “negative (inactive)” and the carcinogen call (rat, strain Fischer 344, females, in feed, site: any site (literature study), lesion: several types, types named in the paper, dosed 104 weeks, study length 104 weeks) is “negative (inactive)”. The TD50 reads like this: (mouse, strain B6C3F1, females, in feed, site: liver, lesion: hepatocellular adenoma + hepatocellular carcinoma + neoplastic nodule, dosed 106 weeks, study length 106 weeks) 23900 mg/kg/day; (mouse, strain B6C3F1, males, in feed, site: all sites, lesion: lymphoma, dosed 106 weeks, study length 106 weeks) 10900 mg/kg/day; (mouse, strain B6C3F1, males, in feed, site: any site (literature study), lesion: several types, types named in the paper, dosed 106 weeks, study length 106 weeks) 4410 mg/kg/day; (mouse, strain B6C3F1, males, in feed, site: liver, lesion: hepatocellular adenoma + hepatocellular carcinoma + neoplastic nodule, dosed 106 weeks, study length 106 weeks) 8610 mg/kg/day; (mouse, strain B6C3F1, males, in feed, site: lung, lesion: alveolar/bronchiolar adenoma + alveolar/bronchiolar carcinoma, dosed 106 weeks, study length 106 weeks) 19100 mg/kg/day; (rat, strain Fischer 344, males, in feed, site: any site (literature study), lesion: several types, types named in the paper, dosed 104 weeks, study length 104 weeks) 787 mg/kg/day (inactive). Further, the TD50 (rat, strain Fischer 344, males, in feed, site: liver, lesion: hepatocellular adenoma + hepatocellular carcinoma + neoplastic nodule, dosed 104 weeks, study length 104 weeks) worked out at 2790 mg/kg/day.
As to `Cc1cccn2c1nc1ccc(N)nc12`, the TD50 is 13.8 mg/kg/day (mouse, strain CDF1, females, in feed, site: blood vessels, lesion: hemangioendothelial sarcoma, dosed 67 weeks, study length 67 weeks); 10.9 mg/kg/day (mouse, strain CDF1, females, in feed, site: blood vessels, lesion: several types, types named in the paper, dosed 67 weeks, study length 67 weeks); 44.1 mg/kg/day (mouse, strain CDF1, females, in feed, site: liver, lesion: hepatocellular adenoma, dosed 67 weeks, study length 67 weeks); 18.5 mg/kg/day (mouse, strain CDF1, females, in feed, site: liver, lesion: hepatocellular carcinoma, dosed 67 weeks, study length 67 weeks); 5.08 mg/kg/day (mouse, strain CDF1, females, in feed, site: liver, lesion: several types, types named in the paper, dosed 67 weeks, study length 67 weeks); 166 mg/kg/day (mouse, strain CDF1, females, in feed, site: lung, lesion: adenoma, dosed 67 weeks, study length 67 weeks). The TD50 is, setting by setting: (mouse, strain CDF1, females, in feed, site: lung, lesion: several types, types named in the paper, dosed 67 weeks, study length 67 weeks) 308 mg/kg/day; (mouse, strain CDF1, males, in feed, site: blood vessels, lesion: hemangioendothelial sarcoma, dosed 57 weeks, study length 57 weeks) 7.81 mg/kg/day; (mouse, strain CDF1, males, in feed, site: blood vessels, lesion: hemangioendothelioma, dosed 57 weeks, study length 57 weeks) 98.7 mg/kg/day; (mouse, strain CDF1, males, in feed, site: blood vessels, lesion: several types, types named in the paper, dosed 57 weeks, study length 57 weeks) 5.77 mg/kg/day; (mouse, strain CDF1, males, in feed, site: liver, lesion: hepatocellular adenoma, dosed 57 weeks, study length 57 weeks) 98.7 mg/kg/day; (mouse, strain CDF1, males, in feed, site: lung, lesion: adenoma, dosed 57 weeks, study length 57 weeks) 1000 mg/kg/day. In addition, the TD50 is, setting by setting: (rat, strain F344/DuCrj, females, in feed, site: Zymbal's gland, lesion: squamous-cell carcinoma, dosed 67 weeks, study length 67 weeks) 12.7 mg/kg/day; (rat, strain F344/DuCrj, females, in feed, site: brain, lesion: astrocytoma, dosed 67 weeks, study length 67 weeks) 95.9 mg/kg/day; (rat, strain F344/DuCrj, females, in feed, site: clitoral gland, lesion: one or several types, types not named, dosed 67 weeks, study length 67 weeks) 56.1 mg/kg/day; (rat, strain F344/DuCrj, females, in feed, site: colon, lesion: adenocarcinoma, dosed 67 weeks, study length 67 weeks) 95.9 mg/kg/day; (rat, strain F344/DuCrj, females, in feed, site: colon, lesion: adenoma, dosed 67 weeks, study length 67 weeks) 71 mg/kg/day; (rat, strain F344/DuCrj, females, in feed, site: colon, lesion: several types, types named in the paper, dosed 67 weeks, study length 67 weeks) 39 mg/kg/day. Moreover, the TD50 runs as follows: (rat, strain F344/DuCrj, females, in feed, site: liver, lesion: several types, types named in the paper, dosed 67 weeks, study length 67 weeks) 8.39 mg/kg/day; (rat, strain F344/DuCrj, females, in feed, site: small intestine, lesion: adenocarcinoma, dosed 67 weeks, study length 67 weeks) 56.1 mg/kg/day; (rat, strain F344/DuCrj, females, in feed, site: small intestine, lesion: adenoma, dosed 67 weeks, study length 67 weeks) 146 mg/kg/day; (rat, strain F344/DuCrj, females, in feed, site: small intestine, lesion: mucinous carcinoma, dosed 67 weeks, study length 67 weeks) 71 mg/kg/day; (rat, strain F344/DuCrj, females, in feed, site: small intestine, lesion: several types, types named in the paper, dosed 67 weeks, study length 67 weeks) 26.1 mg/kg/day; (rat, strain F344/DuCrj, males, in feed, site: Zymbal's gland, lesion: squamous-cell carcinoma, dosed 67 weeks, study length 67 weeks) 10.2 mg/kg/day. For the same compound, the TD50 is, setting by setting: (rat, strain F344/DuCrj, males, in feed, site: colon, lesion: adenocarcinoma, dosed 67 weeks, study length 67 weeks) 16.9 mg/kg/day; (rat, strain F344/DuCrj, males, in feed, site: colon, lesion: adenoma, dosed 67 weeks, study length 67 weeks) 15.4 mg/kg/day; (rat, strain F344/DuCrj, males, in feed, site: colon, lesion: several types, types named in the paper, dosed 67 weeks, study length 67 weeks) 9.45 mg/kg/day; (rat, strain F344/DuCrj, males, in feed, site: liver, lesion: several types, types named in the paper, dosed 67 weeks, study length 67 weeks) 3.25 mg/kg/day; (rat, strain F344/DuCrj, males, in feed, site: small intestine, lesion: adenocarcinoma, dosed 67 weeks, study length 67 weeks) 6.71 mg/kg/day; (rat, strain F344/DuCrj, males, in feed, site: small intestine, lesion: adenoma, dosed 67 weeks, study length 67 weeks) 8.21 mg/kg/day. Moreover, the TD50 was 236 mg/kg/day (rat, strain F344/DuCrj, males, in feed, site: small intestine, lesion: mucinous carcinoma, dosed 67 weeks, study length 67 weeks) and 5.89 mg/kg/day (rat, strain F344/DuCrj, males, in feed, site: small intestine, lesion: several types, types named in the paper, dosed 67 weeks, study length 67 weeks).
With `CNN`, the TD50 (hamster, strain Syrian Golden, females, in drinking water, site: cecum, lesion: polypoid adenoma, dosed 86 weeks, study length 86 weeks) was 29.8 mg/kg/day; the TD50 (hamster, strain Syrian Golden, females, in drinking water, site: cecum, lesion: several types, types named in the paper, dosed 86 weeks, study length 86 weeks) was 25.8 mg/kg/day; the TD50 (hamster, strain Syrian Golden, females, in drinking water, site: liver, lesion: histiocytoma, malignant, dosed 86 weeks, study length 86 weeks) is 15.4 mg/kg/day; the TD50 (hamster, strain Syrian Golden, females, in drinking water, site: liver, lesion: several types, types named in the paper, dosed 86 weeks, study length 86 weeks) is 30.8 mg/kg/day; the TD50 (hamster, strain Syrian Golden, females, in drinking water, site: lung, lesion: angiosarcoma, dosed 86 weeks, study length 86 weeks) is 297 mg/kg/day (inactive); the TD50 (hamster, strain Syrian Golden, males, in drinking water, site: cecum, lesion: polypoid adenoma, dosed 100 weeks, study length 100 weeks) worked out at 50.7 mg/kg/day. The TD50 was 42.1 mg/kg/day (hamster, strain Syrian Golden, males, in drinking water, site: cecum, lesion: several types, types named in the paper, dosed 100 weeks, study length 100 weeks); 9.2 mg/kg/day (hamster, strain Syrian Golden, males, in drinking water, site: liver, lesion: histiocytoma, malignant, dosed 100 weeks, study length 100 weeks); 29.2 mg/kg/day (mouse, strain Swiss, females, in drinking water, site: bile duct, lesion: cholangioma, dosed 62 weeks, study length 62 weeks); 24.6 mg/kg/day (mouse, strain Swiss, females, in drinking water, site: bile duct, lesion: several types, types named in the paper, dosed 62 weeks, study length 62 weeks); 51.1 mg/kg/day (mouse, strain Swiss, females, in drinking water, site: liver, lesion: hepatoma, dosed 62 weeks, study length 62 weeks); 47.2 mg/kg/day (mouse, strain Swiss, females, in drinking water, site: liver, lesion: several types, types named in the paper, dosed 113 weeks, study length 113 weeks). For the same compound, the TD50 is 5.63 mg/kg/day (mouse, strain Swiss, females, in drinking water, site: lung, lesion: adenocarcinoma, dosed 113 weeks, study length 113 weeks); 19.6 mg/kg/day (mouse, strain Swiss, females, in drinking water, site: lung, lesion: adenoma, dosed 62 weeks, study length 62 weeks); 4.02 mg/kg/day (mouse, strain Swiss, females, in drinking water, site: lung, lesion: adenoma, dosed 113 weeks, study length 113 weeks); 21.4 mg/kg/day (mouse, strain Swiss, females, in drinking water, site: lung, lesion: several types, types named in the paper, dosed 62 weeks, study length 62 weeks); 2.98 mg/kg/day (mouse, strain Swiss, females, in drinking water, site: lung, lesion: several types, types named in the paper, dosed 113 weeks, study length 113 weeks); 7.85 mg/kg/day (mouse, strain Swiss, males, in drinking water, site: all sites, lesion: malignant lymphoma, dosed 112 weeks, study length 112 weeks). For the same compound, the TD50 is, setting by setting: (mouse, strain Swiss, males, in drinking water, site: bile duct, lesion: several types, types named in the paper, dosed 69 weeks, study length 69 weeks) 22.5 mg/kg/day; (mouse, strain Swiss, males, in drinking water, site: liver, lesion: hepatoma, dosed 69 weeks, study length 69 weeks) 7.25 mg/kg/day; (mouse, strain Swiss, males, in drinking water, site: liver, lesion: several types, types named in the paper, dosed 69 weeks, study length 69 weeks) 4.58 mg/kg/day; (mouse, strain Swiss, males, in drinking water, site: lung, lesion: adenocarcinoma, dosed 112 weeks, study length 112 weeks) 12 mg/kg/day; (mouse, strain Swiss, males, in drinking water, site: lung, lesion: adenoma, dosed 69 weeks, study length 69 weeks) 10.1 mg/kg/day; (mouse, strain Swiss, males, in drinking water, site: lung, lesion: adenoma, dosed 112 weeks, study length 112 weeks) 2.93 mg/kg/day. For the same compound, the TD50 (mouse, strain Swiss, males, in drinking water, site: lung, lesion: several types, types named in the paper, dosed 112 weeks, study length 112 weeks) was 2.51 mg/kg/day. Further, the carcinogen call (mouse, strain Swiss, females, by gavage, site: lung, lesion: one or several types, types not named, dosed 40 weeks, study length 55 weeks) is “negative (inactive)”.
